Reference: patent publication US8759500B2, “Crystalline forms of a macrolide, and uses therefor” (Cempra Pharmaceuticals, Inc., priority 2010, dated 2014)

Assay: Dynamic vapor sorption
Format: physicochemical
Description: The new physical form, Form I of CEM-101 is a crystalline form which may be described by its X-ray powder diffraction pattern. Peaks at approximate positions of about °2θ=8.8, 10.5, 13.2 and 18.6 are representative of this crystalline form. A more detailed analysis of the peaks is described in Tables 1-2 below. […] Water determination by Karl Fisher titration in typical lots is 0.6 to 1.1%. […] Form I of CEM-101 melts at about 200° C. by DSC analysis.
The new physical form, Form II of CEM-101 is a crystalline form which may be described by its X-ray powder diffraction pattern. Peaks at approximate positions of about °2θ=5.6, 7.9, 9.3, 11.7, 12.9 and 16.7 are representative of this crystalline form. A more detailed analysis of the peaks is described in Tables 3-4 below. Based on a single crystal X-ray determination and dynamic vapor sorption analysis, Form II appears to be a non-hygroscopic anhydrous crystalline form that melts at about 225° C. as a single endothermic event by DSC analysis. It is appreciated herein that non-hygroscopic solids, such as Form II described herein, may be advantageous in the preparation of pharmaceutical compositions. Such advantages include improved handling and stability properties in manufacturing, improved lot to lot quality control.

## CC[C@H]1OC(=O)[C@@](C)(F)C(=O)[C@H](C)[C@@H](O[C@@H]2O[C@H](C)C[C@H](N(C)C)[C@H]2O)[C@](C)(OC)C[C@@H](C)C(=O)[C@H](C)[C@H]2N(CCCCn3cc(-c4cccc(N)c4)nn3)C(=O)O[C@]12C [Form II, solithromycin]
  hygroscopicity: non-hygroscopic
